Source: PubChem BioAssay AID248 (DTP/NCI, 2004)
Values joined by “and” are separate entries in the source; they are usually repeats but may differ in a detail not shown here. Equal entries are not always repeated. Inconclusive results and toxic doses are left out.

Test system: L1210 leukemia ip in BDF1 mice, survival T/C
Assay: NCI In Vivo Anticancer Drug Screen. Data for tumor model L1210 Leukemia (intraperitoneal) in B6D2F1 (BDF1) mice
Details: endpoint: mean survival time, higher = longer survival
Procedure, shortened: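 Survival endpoint. Drug-treated group vs vehicle group, expressed as T divided by C. Tumor passaged by transplantation.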

[1] = dose: 50.0 mg/kg/injection, schedule: Q01DX001 (ip), vehicle: saline
[2] = dose: 100.0 mg/kg/injection, schedule: Q01DX001 (ip), vehicle: saline
[3] = dose: 200.0 mg/kg/injection, schedule: Q01DX001 (ip), vehicle: saline
[4] = dose: 100.0 mg/kg/injection, schedule: Q04DX002 (ip), vehicle: saline with Tween-80
[5] = dose: 200.0 mg/kg/injection, schedule: Q04DX002 (ip), vehicle: saline with Tween-80
[6] = dose: 400.0 mg/kg/injection, schedule: Q04DX002 (ip), vehicle: saline with Tween-80
[7] = dose: 100.0 mg/kg/injection, schedule: Q01DX009 (ip), vehicle: Klucel (hydroxypropylcellulose) (HPC)
[8] = dose: 200.0 mg/kg/injection, schedule: Q01DX009 (ip), vehicle: Klucel (hydroxypropylcellulose) (HPC)
[9] = dose: 100.0 mg/kg/injection, schedule: Q01DX009 (ip), vehicle: saline with Tween-80
[10] = dose: 100.0 mg/kg/injection, schedule: Q04DX003 (ip), vehicle: saline with Tween-80
[11] = dose: 200.0 mg/kg/injection, schedule: Q01DX009 (ip), vehicle: saline with Tween-80
[12] = dose: 200.0 mg/kg/injection, schedule: Q04DX003 (ip), vehicle: saline with Tween-80
[13] = dose: 400.0 mg/kg/injection, schedule: Q01DX009 (ip), vehicle: saline with Tween-80
[14] = dose: 400.0 mg/kg/injection, schedule: Q04DX003 (ip), vehicle: saline with Tween-80
[15] = dose: 400.0 mg/kg/injection, schedule: Q01DX009 (ip), vehicle: Klucel (hydroxypropylcellulose) (HPC)
[16] = dose: 100.0 mg/kg/injection, schedule: Q04DX003 (ip), vehicle: Klucel (hydroxypropylcellulose) (HPC)
[17] = dose: 200.0 mg/kg/injection, schedule: Q04DX003 (ip), vehicle: Klucel (hydroxypropylcellulose) (HPC)
[18] = dose: 100.0 mg/kg/injection, schedule: Q01DX001 (ip), vehicle: Klucel (hydroxypropylcellulose) (HPC)
[19] = dose: 200.0 mg/kg/injection, schedule: Q01DX001 (ip), vehicle: Klucel (hydroxypropylcellulose) (HPC)
[20] = dose: 400.0 mg/kg/injection, schedule: Q01DX001 (ip), vehicle: Klucel (hydroxypropylcellulose) (HPC)
[21] = dose: 50.0 mg/kg/injection, schedule: Q01DX009 (ip), vehicle: saline with Tween-80
[22] = dose: 100.0 mg/kg/injection, schedule: Q04DX002 (ip), vehicle: Klucel (hydroxypropylcellulose) (HPC)
[23] = dose: 200.0 mg/kg/injection, schedule: Q04DX002 (ip), vehicle: Klucel (hydroxypropylcellulose) (HPC)

CS(=O)(=O)OCCN(CCOS(C)(=O)=O)c1cccc(N)c1
T/C (dose: 0.22 mg/kg/injection, schedule: Q01DX001 (ip), vehicle: saline): 105 % of control | T/C (dose: 0.33 mg/kg/injection, schedule: Q01DX001 (ip), vehicle: saline): 105 % of control | T/C (dose: 0.5 mg/kg/injection, schedule: Q01DX001 (ip), vehicle: saline): 97 % of control and 110 % of control | T/C (dose: 0.75 mg/kg/injection, schedule: Q01DX001 (ip), vehicle: saline): 106 % of control | T/C (dose: 1.0 mg/kg/injection, schedule: Q01DX001 (ip), vehicle: saline): 109 % of control | T/C (dose: 2.0 mg/kg/injection, schedule: Q01DX001 (ip), vehicle: saline): 117 % of control | T/C (dose: 3.5 mg/kg/injection, schedule: Q01DX001 (ip), vehicle: saline): 116 % of control | T/C (dose: 5.3 mg/kg/injection, schedule: Q01DX001 (ip), vehicle: saline): 91 % of control | T/C (dose: 8.0 mg/kg/injection, schedule: Q01DX001 (ip), vehicle: saline): 209 % of control and 86 % of control

O=C(O)Cc1ccc2c(c1)C(=O)C(=O)N2
T/C (dose: 100.0 mg/kg/injection, schedule: Q04DX003 (ip), vehicle: saline): 95 % of control | T/C (dose: 200.0 mg/kg/injection, schedule: Q04DX003 (ip), vehicle: saline): 102 % of control | T/C (dose: 400.0 mg/kg/injection, schedule: Q04DX003 (ip), vehicle: saline): 89 % of control

COc1ccccc1/C=C\C=O
T/C (dose: 100.0 mg/kg/injection, schedule: Q01DX001 (ip), vehicle: carboxymethylcellulose (CMC)): 103 % of control | T/C (dose: 200.0 mg/kg/injection, schedule: Q01DX001 (ip), vehicle: carboxymethylcellulose (CMC)): 100 % of control | T/C (dose: 400.0 mg/kg/injection, schedule: Q01DX001 (ip), vehicle: carboxymethylcellulose (CMC)): 97 % of control

N#Cc1cn(-c2cccc(Cl)c2)c2ncccc12
T/C (dose: 25.0 mg/kg/injection, schedule: Q01DX001 (ip), vehicle: saline): 103 % of control | T/C [1]: 100 % of control | T/C [2]: 103 % of control | T/C [3]: 87 % of control | T/C (dose: 400.0 mg/kg/injection, schedule: Q01DX001 (ip), vehicle: saline): 91 % of control

NC(=O)NCc1ccc(CNC(N)=O)cc1
T/C [4]: 98 % of control | T/C [5]: 98 % of control | T/C [6]: 115 % of control

CN(C)C/C(=N\O)c1ccc(Cl)cc1
T/C (dose: 50.0 mg/kg/injection, schedule: Q01DX009 (ip), vehicle: Klucel (hydroxypropylcellulose) (HPC)): 93 % of control | T/C [2]: 97 % of control | T/C [7]: 93 % of control | T/C [3]: 100 % of control | T/C [8]: 100 % of control

C/C(=C\c1cc(-c2ccccc2)cc(=O)o1)c1ccccc1
T/C [9]: 89 % of control | T/C [10]: 104 % of control | T/C [11]: 97 % of control | T/C [12]: 95 % of control | T/C [13]: 89 % of control | T/C [14]: 103 % of control

Cc1cc(Cl)ccc1NC(=O)Nc1ccccc1F
T/C [7]: 100 % of control | T/C [8]: 96 % of control | T/C [15]: 94 % of control

c1ccc(CNNCc2ccccc2)cc1
T/C (dose: 75.0 mg/kg/injection, schedule: Q01DX009 (ip), vehicle: Klucel (hydroxypropylcellulose) (HPC)): 102 % of control | T/C [16]: 102 % of control | T/C (dose: 150.0 mg/kg/injection, schedule: Q01DX009 (ip), vehicle: Klucel (hydroxypropylcellulose) (HPC)): 109 % of control | T/C [17]: 94 % of control

CCOC(=O)c1c[nH]c2c(c1=O)c(=O)n(C)c(=O)n2C
T/C [18]: 97 % of control | T/C [19]: 101 % of control | T/C [20]: 94 % of control

O=C(CCOCc1ccccc1)N1Cc2cc3ccccc3nc2C1=O
T/C (dose: 10.0 mg/kg/injection, schedule: Q07DX002 (ip), vehicle: alcohol): 89 % of control | T/C (dose: 20.0 mg/kg/injection, schedule: Q07DX002 (ip), vehicle: alcohol): 99 % of control | T/C (dose: 40.0 mg/kg/injection, schedule: Q07DX002 (ip), vehicle: alcohol): 92 % of control | T/C (dose: 80.0 mg/kg/injection, schedule: Q07DX002 (ip), vehicle: alcohol): 86 % of control

C[C@@H]1O[C@@H](O[C@H]2CC[C@]3(C=O)[C@H]4CC[C@]5(C)[C@@H](c6ccc(=O)oc6)CC[C@]5(O)[C@@H]4CC[C@]3(O)C2)[C@H](O)[C@H](O)[C@H]1O[C@@H]1O[C@H](CO)[C@@H](O)[C@H](O)[C@H]1O
T/C (dose: 5.0 mg/kg/injection, schedule: Q01DX001 (ip), vehicle: carboxymethylcellulose (CMC)): 100 % of control | T/C (dose: 10.0 mg/kg/injection, schedule: Q01DX001 (ip), vehicle: carboxymethylcellulose (CMC)): 94 % of control

C=CCOc1ccnc(N)n1
T/C [9]: 90 % of control | T/C [10]: 105 % of control | T/C [11]: 95 % of control | T/C [12]: 100 % of control | T/C [13]: 100 % of control | T/C [14]: 102 % of control

CC12CCCCC1=CC(=O)CCC2 (stereo not given)
T/C [21]: 98 % of control | T/C [9]: 98 % of control | T/C [11]: 98 % of control

Nc1nc(N)c2c(no[n+]2[O-])n1
T/C (dose: 75.0 mg/kg/injection, schedule: Q01DX001 (ip), vehicle: other): 98 % of control

CN(C)C(=S)SCSC(=S)N(C)C
T/C (dose: 25.0 mg/kg/injection, schedule: Q04DX003 (ip), vehicle: saline with Tween-80): 100 % of control | T/C (dose: 50.0 mg/kg/injection, schedule: Q04DX003 (ip), vehicle: saline with Tween-80): 91 % of control | T/C [22]: 97 % of control | T/C [10]: 91 % of control | T/C [23]: 93 % of control | T/C (dose: 400.0 mg/kg/injection, schedule: Q04DX002 (ip), vehicle: Klucel (hydroxypropylcellulose) (HPC)): 93 % of control

CCCCN(CCCC)S(=O)(=O)O
T/C (dose: 25.0 mg/kg/injection, schedule: Q04DX002 (ip), vehicle: Klucel (hydroxypropylcellulose) (HPC)): 101 % of control | T/C (dose: 50.0 mg/kg/injection, schedule: Q04DX002 (ip), vehicle: Klucel (hydroxypropylcellulose) (HPC)): 108 % of control | T/C [22]: 115 % of control

CN(C)Cc1ccccc1COC(=O)c1cccc(Br)c1
T/C [22]: 98 % of control | T/C [23]: 102 % of control

COCCCN1CC2CCCC1O2 (stereo not given)
T/C [1]: 91 % of control | T/C [2]: 95 % of control | T/C [3]: 97 % of control

CC1(C)OC2OC(C3COC(=O)O3)C(O)C2O1 (stereo not given)
T/C [18]: 114 % of control | T/C [19]: 101 % of control | T/C [20]: 96 % of control

O=C(c1ccccc1)c1cc(=O)[nH]c(=O)[nH]1
T/C (dose: 47.5 mg/kg/injection, schedule: Q01DX001 (ip), vehicle: Klucel (hydroxypropylcellulose) (HPC)): 100 % of control | T/C (dose: 95.0 mg/kg/injection, schedule: Q01DX001 (ip), vehicle: Klucel (hydroxypropylcellulose) (HPC)): 102 % of control | T/C (dose: 190.0 mg/kg/injection, schedule: Q01DX001 (ip), vehicle: Klucel (hydroxypropylcellulose) (HPC)): 98 % of control

CCOC(=Nc1ccccc1)c1ccccc1
T/C [7]: 104 % of control | T/C [8]: 100 % of control | T/C [15]: 102 % of control

Cc1c2ccccc2c(C)c2c1ccc1ccccc12
T/C (dose: 6.25 mg/kg/injection, schedule: Q01DX001 (ip), vehicle: acetone): 123 % of control | T/C (dose: 12.37 mg/kg/injection, schedule: Q04DX003 (ip), vehicle: saline with Tween-80): 112 % of control

CC(S)CN1CC1 (stereo not given)
T/C [16]: 107 % of control | T/C [17]: 105 % of control

Cc1ccc(Cl)cc1NC(=O)Nc1cccc(C(F)(F)F)c1
T/C [21]: 97 % of control and 90 % of control | T/C [4]: 102 % of control and 88 % of control | T/C [10]: 101 % of control | T/C [5]: 98 % of control and 90 % of control | T/C [12]: 96 % of control | T/C [13]: 105 % of control and 90 % of control | T/C [6]: 104 % of control and 91 % of control | T/C [14]: 91 % of control

COc1ccc(/C=C/C(=O)c2ccc(OCc3ccccc3)c(OC)c2)cc1OC
T/C [21]: 105 % of control | T/C [9]: 104 % of control | T/C [11]: 98 % of control | T/C [13]: 90 % of control | T/C (dose: 500.0 mg/kg/injection, schedule: Q01DX009 (ip), vehicle: saline with Tween-80): 102 % of control
